{"source": "paper PMC7948422", "about": "“Repurposing p97 inhibitors for chemical modulation of the bacterial ClpB–DnaK bichaperone system” (The Journal of Biological Chemistry, 2020)", "key": {"ClpB W543F": {"molecular_target": "T1, ClpB W543F (Escherichia coli, UniProt P63284, W543F)", "T1 construct": "made in house", "experiment": "Surface plasmon resonance, immobilized ClpB W543F", "type": "binding", "protocol": "(§1) ClpB, DnaK, and the NBD of DnaK were extensively dialyzed against the SPR buffer (20-mM Hepes, pH 7.4, 150-mM NaCl, 20-mM MgCl2, 1-mM EDTA, 1-mM DTT). After dialysis, the protein concentration was determined by the Bradford method. The DBeQ–protein interactions were studied using a Biacore T200 instrument (GE Healthcare) at 25 °C. The proteins were diluted to 300 μg/ml in 10-mM sodium acetate buffer (pH 5 for ClpB DnaK or pH 4 for NBD) and immobilized on HC1500M sensor chips (Xantec) by standard amine coupling chemistry as described previously ([70]). A reference flow cell was created by ethyl(dimethylaminopropyl) carbodiimide/N-hydroxysuccinimide activation followed by quenching with 1 M ethanolamine (pH 9.0). Solvent correction curves were obtained at the beginning and end and after every 50 injection cycles by injecting varying DMSO concentrations (4.0, 4.4, 4.6, 4.8, 5.0, 5.2, 5.4, and 5.9% [v/v]). All experiments were performed using a flow rate of 30 μl/min.\nBinding isotherms were obtained with the ligand diluted to different concentrations in the SPR running buffer HBSMTD (20-mM Hepes, pH 7.4, 140-mM NaCl, 20-mM MgCl2, 5% (v/v) DMSO, 0.005% (v/v) Tween-20). Replicate injections were performed for all samples, and a buffer-only injection was performed for every 12 injection cycles. To test the structural integrity of ClpB after immobilization on the sensor chips, we performed control titrations with ATPγS and adenosine. The dissociation constants determined from those experiments were ∼20 μM for ATPγS and ∼2 mM for adenosine. […] Moreover, the immobilized ClpB discriminated between a nucleotide analog and a nucleoside, which indicated an adequate structural integrity of ClpB on the sensor chips.\nThe resulting sensorgrams were analyzed using Biacore T200 Evaluation Software v3.0 according to the following procedure. Solvent correction curves were generated and applied to all data sets, and all sensorgrams were double-referenced by subtracting the most recent buffer blank injection. […]"}, "E. coli dnaK756": {"test_system": "E. coli dnaK756", "experiment": "Bacterial viability, dnaK756", "type": "cell-based, Escherichia coli", "settings": "45 °C", "protocol": "(§2) E. coli MC4100, MC4100ΔclpB, dnaK103, and dnaK756 strains were used to determine an influence of DBeQ on bacterial growth and viability. Bacteria were maintained in the LB media, and in the case of the MC4100ΔclpB strain, LB was supplemented with 30 μg/ml kanamycin. All experiments were initiated by preparing overnight cultures inoculated from single colonies and grown at 37 °C. The dnaK103 and dnaK756 overnight cultures were grown at 30 °C. On the following day, the cultures were diluted 100-fold in 10 ml of LB without antibiotics and incubated at 37 °C. The culture optical density was monitored at 600 nm. When absorbance at 600 nm reached 0.4, the culture was divided into 1-ml aliquots and supplemented with 10 μl of DMSO or different concentrations of DBeQ in DMSO. The samples were immediately transferred into an incubator/shaker at temperature 37, 45, or 50 °C. Bacteria were cultured for up to 4 h with shaking (200 RPM). At specific time points, 100 μl of each culture was withdrawn and serially diluted in sterile 0.9% NaCl up to 10^6-fold dilution. To estimate the number of viable cells, 5 μl or 10 μl of the diluted cultures was spread on the LB-agar plate without an antibiotic. […] On the following day, the bacterial colonies were counted and the colony-forming units/ml were calculated."}, "DnaK": {"molecular_target": "T2, DnaK (Escherichia coli, UniProt P0A6Y8)", "T2 construct": "full-length E. coli DnaK (residues 1–638); made in house; host or cells: E. coli BL21(DE3)", "experiment": "Surface plasmon resonance, immobilized DnaK", "type": "binding", "protocol": "as §1, with “All experiments were performed using a flow rate of 30 μl/min.” left out\nBinding isotherms were obtained with the ligand diluted to different concentrations in the SPR running buffer HBSMTD (20-mM Hepes, pH 7.4, 140-mM NaCl, 20-mM MgCl2, 5% (v/v) DMSO, 0.005% (v/v) Tween-20). […] The dissociation constants determined from those experiments were ∼20 μM for ATPγS and ∼2 mM for adenosine. […]\nThe resulting sensorgrams were analyzed using Biacore T200 Evaluation Software v3.0 according to the following procedure. […]"}, "ClpB E279Q/E678Q": {"molecular_target": "T3, ClpB E279Q/E678Q (Escherichia coli, UniProt P63284, E279Q/E678Q)", "T3 construct": "made in house", "experiment": "FITC-casein fluorescence anisotropy titration with ClpB E279Q/E678Q", "type": "binding", "protocol": "To monitor interactions between casein and ClpB, we used FITC-casein and the substrate-trapping ClpB E279Q/E678Q variant ([52], [73]). The titration of FITC-casein with ClpB E279Q/E678Q in the presence of ATP or ADP and the fluorescence anisotropy measurements were performed as previously described ([65])."}, "E. coli dnaK103": {"test_system": "E. coli dnaK103", "experiment": "Bacterial viability, dnaK103", "type": "cell-based, Escherichia coli", "settings": "45 °C", "protocol": "as §2"}, "ClpB": {"molecular_target": "T4, ClpB (Escherichia coli, UniProt P63284)", "T4 construct": "made in house", "experiment": "Pilot chemical library screen of ClpB ATPase (BioMol Green)", "type": "biochemical", "settings": "388 bioactive compounds, in the presence of 25 μM κ-casein", "protocol": "An absorbance-based assay for ClpB ATPase activity was developed by using BioMol Green Reagent (Enzo Life Sciences, Farmington, NY) for screening in a 384-microplate–based format. The optimized assay conditions were as follows: ClpB (150 nM), ATP ([…]), and κ-casein (25 μM) in 100-mM Tris/HCl, pH 8, 10-mM MgCl2, 1-mM DTT, and 1-mM EDTA. The samples were incubated for 10 min at 37 °C, and the ATP hydrolysis reaction was terminated by adding 80 μl of BIOMOL Green. Absorbance at 620 nm was measured with a PerkinElmer EnSpire. The optimized assay was used to screen compounds drawn from Selleck Bioactive library (1900 compounds; Selleck Chemicals, Houston, TX) in the presence or absence of κ-casein."}, "[1]": {"set-up": "method as in PMID 21383145", "settings": "cited from earlier work"}}, "note": "Values joined by “and” are separate entries in the source; they are usually repeats but may differ in a detail not shown here. Equal values may be shown once."}
{"molecule": "c1ccc(CNc2nc(NCc3ccccc3)c3ccccc3n2)cc1", "note": "[DBeQ, N^2,N^4-dibenzylquinazoline-2,4-diamine]", "values": [{"measurement": "Kd", "setting": "ClpB W543F", "value": "59.1 ± 4.1", "unit": "µM"}, {"measurement": "Bmax (SPR signal at saturation), ClpB W543F", "setting": "ClpB W543F; SPR", "value": "1.07 ± 0.03"}, {"measurement": "Hill coefficient, ClpB W543F", "setting": "ClpB W543F; SPR", "value": "2.4 ± 0.4"}, {"measurement": "effect on viability of dnaK756", "setting": "E. coli dnaK756", "value": "not affected"}, {"measurement": "Bmax (SPR signal at saturation), DnaK", "setting": "DnaK", "value": "2.07 ± 0.20"}, {"measurement": "Kd", "setting": "DnaK; apparent Kd, DBeQ binding to DnaK, SPR, non-cooperative model, approximate, close to ligand solubility limit", "value": "105 µM and ~100 µM"}, {"measurement": "Kd", "setting": "ClpB E279Q/E678Q", "value": 0.0785, "unit": "µM"}, {"measurement": "effect on ATP-dependent binding of casein to ClpB", "setting": "ClpB E279Q/E678Q; 80-μM DBeQ", "value": "did not inhibit"}, {"measurement": "Hill number of ClpB–FITC-casein binding with DBeQ", "setting": "ClpB E279Q/E678Q; 80-μM DBeQ, 5-mM ATP", "value": 1.48}, {"measurement": "saturation signal of ClpB–FITC-casein binding with DBeQ", "setting": "ClpB E279Q/E678Q; 80-μM DBeQ, 5-mM ATP", "value": 0.11}, {"measurement": "effect on viability of dnaK103", "setting": "E. coli dnaK103", "value": "suppressed viability"}, {"measurement": "candidate ClpB ATPase inhibitor in pilot screen", "setting": "ClpB", "value": "candidate ClpB ATPase inhibitor"}, {"measurement": "solubility in aqueous buffers", "setting": "[1]", "value": "limited"}]}
